# Reference: publication PMC3649849 (Journal of the American Chemical Society, 2013)
# What was measured:
# [1] = I = 0.05 (KCl); cited from earlier work
# I172A mutant TbbTIM = test: Competitive inhibition of TIM-catalyzed isomerization of GAP by phosphoglycolate; assay type: biochemical, Trypanosoma brucei brucei; conditions: pH < 6
# [2] = target: wildtype TbbTIM (triosephosphate isomerase) (Trypanosoma brucei brucei, UniProt P04789); test: as above; assay type: biochemical; conditions: relative to 14 kcal/mol estimated for GAP
# L232A mutant TbbTIM = L232A mutant TbbTIM (Trypanosoma brucei brucei, UniProt P04789, L232A); test: as above; assay type: biochemical
structure (smiles),measurement,setting,value
"O=C(O)COP(=O)(O)O [PGA, Phosphoglycolate]",pKa for ionization of HI^2− to form I^3−,[1],6.5
same,fold lower affinity of the mutant compared with the wildtype enzyme for I^3−,I172A mutant TbbTIM,100 fold
same,fraction of the total intrinsic transition state binding energy for TIM expressed,[2],~ 80%
same,fold increase in the affinity of the enzyme for I^3− from the L232A mutation,"L232A mutant TbbTIM; pH 8.3, relative to wildtype",20 fold
same,Ki,"L232A mutant TbbTIM; read-out: Ki for inhibition by PGA trianion I^3−, pH 8.3, 25 °C, I = 0.1 (NaCl)",12 µM
